# Assay results as given in ChEMBL document CHEMBL1201862, “PubChem BioAssay data set” (2004).
# Activity calls are given as the source filed them.
# What was measured:
# [1] = biological target: T1, NAD-dependent protein deacylase sirtuin-5, mitochondrial (Homo sapiens, UniProt Q9NXA8); assay: sirtuin-5 deacylation blockers, concentration series – biochemical, fluorescence imaging, cherry-pick, set 5, dose response (AID 720591);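 note: desuccinylation of succinyl peptide AMC substrate read as fluorescence after trypsin release; potency of inhibitors that lower fluorescence and may act on trypsin instead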
# T1 sequence (Q9NXA8 whole entry): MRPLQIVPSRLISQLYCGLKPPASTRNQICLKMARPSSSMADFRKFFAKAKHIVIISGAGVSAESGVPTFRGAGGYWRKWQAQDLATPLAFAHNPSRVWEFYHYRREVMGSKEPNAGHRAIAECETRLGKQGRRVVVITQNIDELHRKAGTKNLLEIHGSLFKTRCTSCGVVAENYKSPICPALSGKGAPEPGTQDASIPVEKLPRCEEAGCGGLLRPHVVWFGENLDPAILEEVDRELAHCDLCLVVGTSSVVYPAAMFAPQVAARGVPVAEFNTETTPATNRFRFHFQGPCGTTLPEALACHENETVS
# [2] = toxicity to human hepatoma HepG2 cells – cell-based, cherry-picked samples, cytotoxicity control, dose response (AID 1159577); format: functional
# [3] = IGROV1 cell killing – plate reader, dry powder samples, PAX8 inhibitor project, dose response (AID 743043); format: functional, cell-based; conditions: IGROV-1
# Paired box protein Pax-8 = Paired box protein Pax-8 (Homo sapiens, UniProt Q06710); assay: PAX8 transcriptional activity inhibition in RMG-I – RMG-I cells, luciferase, cherry-pick, dose response (AID 687027); format: functional, cell-based;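 note: luciferase reporter driven by Pax8 target thyroperoxidase promoter measured by SteadyGlo luminescence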
# Chain of Paired box protein Pax-8 (Q06710 whole entry): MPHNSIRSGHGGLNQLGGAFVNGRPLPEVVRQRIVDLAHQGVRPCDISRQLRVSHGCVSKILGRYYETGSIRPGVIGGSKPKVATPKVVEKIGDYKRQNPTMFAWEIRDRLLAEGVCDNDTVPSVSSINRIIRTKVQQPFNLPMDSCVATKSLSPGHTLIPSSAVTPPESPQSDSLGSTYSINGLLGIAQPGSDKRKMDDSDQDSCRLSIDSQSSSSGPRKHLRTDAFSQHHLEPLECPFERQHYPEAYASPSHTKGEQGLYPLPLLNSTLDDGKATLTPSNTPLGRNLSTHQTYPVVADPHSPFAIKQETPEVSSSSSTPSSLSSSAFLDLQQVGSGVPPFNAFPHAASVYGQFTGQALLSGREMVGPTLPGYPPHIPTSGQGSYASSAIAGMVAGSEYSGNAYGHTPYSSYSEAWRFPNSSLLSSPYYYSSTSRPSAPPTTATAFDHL
# [4] = reduced cellular PGC1a acetyl-lysine signal – cell-based, cherry-picked samples, dose response (AID 720514); format: functional;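 note: potency may reflect raised or lowered acetylation signal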
# [5] = P. falciparum Dd2 growth inhibitors, dose response, SYBR Green, cherry-picked samples (AID 1159567); format: functional, cell-based
# [6] = OVCAR8 cell viability loss – plate reader, dry powder samples, PAX8 project, dose response (AID 743197); format: functional, cell-based; conditions: OVCAR-8
# [7] = general cell-killing toxicity readout – plate reader, dry powder samples, cytotoxicity control for PAX8 inhibitor project, dose response (AID 743021); format: functional, cell-based
# BJ [8] = assay: BJ-TERT-LT-ST fibroblast viability loss – cell-based, RAS-independent, luminescence, dose response (AID 1935); format: functional; conditions: Homo sapiens;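 note: BJ fibroblasts immortalized with TERT plus LT and ST oncogenes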
# [9] = rescue of ΔF508 CFTR function, airway epithelium – human bronchial epithelial cells, plate reader, cherry-pick, two tests, dose response (AID 743267); format: functional, cell-based
# [10] = DRD fibroblast viability loss – cell-based, non-viral oncogenic, luminescence, dose response (AID 1934); format: functional; conditions: Homo sapiens
# BJ [11] = assay: BJ-TERT fibroblast viability loss – cell-based, RAS-independent, luminescence, dose response (AID 1933); format: functional; conditions: Homo sapiens
# BJ [12] = assay: cells; format: functional, cell-based; conditions: Homo sapiens
# Kallikrein-7 = Kallikrein-7 (Homo sapiens, UniProt P49862); assay: Fluorescence Intensity-based biochemical primary high throughput dose response assay to identify activators of kallikrein-7 (K7) zymogen.
# Chain of Kallikrein-7 (P49862 whole entry): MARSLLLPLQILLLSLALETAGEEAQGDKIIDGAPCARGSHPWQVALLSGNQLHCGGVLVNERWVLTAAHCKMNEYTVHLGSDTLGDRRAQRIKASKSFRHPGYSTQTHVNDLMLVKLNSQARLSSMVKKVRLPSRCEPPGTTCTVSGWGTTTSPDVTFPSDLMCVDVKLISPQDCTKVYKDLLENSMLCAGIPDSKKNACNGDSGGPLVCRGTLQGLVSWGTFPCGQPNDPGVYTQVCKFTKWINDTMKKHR
# [13] = biological target: Protein disulfide-isomerase (Homo sapiens, UniProt P07237); assay: inhibition of PDI-mediated insulin reduction – biochemical, turbidity, dry powder samples, set 2, confirmation (AID 652146)
# Chain of Protein disulfide-isomerase (P07237 whole entry): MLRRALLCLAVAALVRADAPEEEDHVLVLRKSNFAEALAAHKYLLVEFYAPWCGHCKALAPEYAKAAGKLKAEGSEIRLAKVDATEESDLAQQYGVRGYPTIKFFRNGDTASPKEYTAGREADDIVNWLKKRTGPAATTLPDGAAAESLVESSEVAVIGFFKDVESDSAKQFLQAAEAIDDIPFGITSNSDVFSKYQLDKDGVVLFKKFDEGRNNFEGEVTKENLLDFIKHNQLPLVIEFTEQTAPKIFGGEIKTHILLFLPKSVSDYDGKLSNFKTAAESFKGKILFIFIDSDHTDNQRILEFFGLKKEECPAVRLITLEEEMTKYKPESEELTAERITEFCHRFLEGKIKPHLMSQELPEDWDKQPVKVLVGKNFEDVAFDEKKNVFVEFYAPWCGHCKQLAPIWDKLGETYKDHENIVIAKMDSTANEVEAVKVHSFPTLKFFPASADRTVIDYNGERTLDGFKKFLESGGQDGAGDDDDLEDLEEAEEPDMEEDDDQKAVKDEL
# [14] = loss of viability in hepatoma HepG2 cells – cell-based, ATP luminescence, dry powder, cytotoxicity control, dose response (AID 652118); format: functional
# Vero = assay: viability loss in Vero cells – cell-based, plate reader, cherry-pick samples, cytotoxicity control, dose response (AID 687020); format: functional; conditions: Chlorocebus sabaeus
# [15] = Late stage counterscreen for inhibitors of Trypanosoma brucei methionyl tRNA synthetase (MetRS): Luminescence-based cell-based high throughput dose response assay to identify compounds that are cytotoxic to Jurkat human T lymphocyte cells.; format: functional
# HepG2 = assay: viability loss in HepG2 hepatoma cells – cell-based, cherry-picks, set 2, cytotoxicity control, dose response (AID 687002); format: functional; conditions: Homo sapiens
# [16] = viability loss in CEM21 cells – cell-based, CellTiter-Glo luminescence, cherry-picked, cytotoxicity control for viral fusion inhibitor project, dose response (AID 652042); format: functional;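 note: potency for signal decrease meaning cytotoxicity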
# HeLa = assay: viability loss in HeLa cells – cell-based, ATP luminescence, cherry-pick samples, cytotoxicity control, dose response (AID 687004); format: functional; conditions: Homo sapiens
# [17] = off-target signal loss in HeLa-CEM21 co-culture – HeLa F-luc CTL cells, cherry-picked, counter-screen for HIV-1 Env fusion inhibitor project, dose response (AID 652040); format: functional, cell-based;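 note: potency for signal decrease marking cytotoxic or nonspecific inhibition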
# [18] = HGIII-sPLA2 enzyme inhibition potency – biochemical, QFRET, IC50, dose response (AID 743457);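 note: green fluorescence rise as the enzyme cleaves BODIPY PC-A2 in liposomes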
# [19] = biological target: T2, Ubiquitin-conjugating enzyme E2 N (Homo sapiens, UniProt P61088); format: functional;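 note: Dose-response confirmation in a TR-FRET assay detecting UBC13-driven polyubiquitin chain formation, inhibition measured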
# T2 sequence (P61088 whole entry): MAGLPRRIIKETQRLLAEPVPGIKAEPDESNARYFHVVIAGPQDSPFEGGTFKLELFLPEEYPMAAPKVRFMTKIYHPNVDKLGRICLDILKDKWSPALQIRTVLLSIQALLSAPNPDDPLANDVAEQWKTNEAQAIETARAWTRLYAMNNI
# [20] = biological target: Intestinal-type alkaline phosphatase (Homo sapiens, UniProt P09923); assay: human intestinal alkaline phosphatase activators, dose response, biochemical, luminescence, uHTS hits (AID 463120); format: functional
# Chain of Intestinal-type alkaline phosphatase (P09923 whole entry): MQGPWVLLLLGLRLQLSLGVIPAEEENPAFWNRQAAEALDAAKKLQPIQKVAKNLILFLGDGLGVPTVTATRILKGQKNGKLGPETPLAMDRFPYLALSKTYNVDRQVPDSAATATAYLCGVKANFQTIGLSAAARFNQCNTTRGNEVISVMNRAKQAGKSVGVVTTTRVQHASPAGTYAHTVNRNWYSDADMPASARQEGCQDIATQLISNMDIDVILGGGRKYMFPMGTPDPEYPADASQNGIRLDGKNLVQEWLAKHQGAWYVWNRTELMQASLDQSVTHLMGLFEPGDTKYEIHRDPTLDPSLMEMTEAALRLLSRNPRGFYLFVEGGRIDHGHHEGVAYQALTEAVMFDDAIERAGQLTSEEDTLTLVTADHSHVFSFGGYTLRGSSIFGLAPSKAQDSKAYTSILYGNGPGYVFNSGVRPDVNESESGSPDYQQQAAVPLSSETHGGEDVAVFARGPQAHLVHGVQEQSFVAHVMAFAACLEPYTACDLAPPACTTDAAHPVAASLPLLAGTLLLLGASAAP
# [21] = cytotoxicity in MITF-independent A375 cells – cell-based, CellTiter-Glo luminescence, dry powder, set 4, counter-screen for MITF inhibitor project, dose response (AID 624364); format: functional; conditions: A-375;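 note: A375 melanoma cells are MITF independent so this is a counter screen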
# [22] = viability loss in MITF-independent A375 cells – cell-based, CellTiter-Glo luminescence, dry powder, set 2, counter-screen for MITF inhibitor project, dose response (AID 624489); format: functional; conditions: A-375;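 note: actives are compounds lowering A375 viability meaning general cytotoxicity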
# [23] = biological target: Botulinum neurotoxin type F (Clostridium botulinum, UniProt P30996); assay: High-throughput multiplex microsphere dose response for inhibitors of toxin protease, specifically Botulinum neurotoxin light chain F protease, compounds from Cherry Pick 02.; format: functional; conditions: read-out: EC50_MICROM
# Chain of Botulinum neurotoxin type F (P30996 1-436 limits assumed): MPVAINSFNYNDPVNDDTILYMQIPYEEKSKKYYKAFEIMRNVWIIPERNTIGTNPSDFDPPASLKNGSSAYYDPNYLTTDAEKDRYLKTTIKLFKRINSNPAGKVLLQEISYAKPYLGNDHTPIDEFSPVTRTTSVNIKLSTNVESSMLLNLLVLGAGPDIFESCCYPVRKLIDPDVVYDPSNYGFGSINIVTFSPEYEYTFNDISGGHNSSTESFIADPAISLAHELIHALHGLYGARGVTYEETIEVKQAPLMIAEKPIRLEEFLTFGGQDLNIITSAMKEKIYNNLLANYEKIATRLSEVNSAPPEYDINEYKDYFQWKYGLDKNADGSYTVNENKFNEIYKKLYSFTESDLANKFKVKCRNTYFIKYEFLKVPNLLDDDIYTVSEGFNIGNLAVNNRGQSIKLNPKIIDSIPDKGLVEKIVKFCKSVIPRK
# Bcl-2-like protein 10 = biological target: T3, Bcl-2-like protein 10 (Homo sapiens, UniProt Q9HD36); assay: Bcl-B/TR3 peptide binding disruption – biochemical, fluorescence polarization, FITC-TR3 peptide, selectivity assay for Bfl-1 inhibitor project, primary screen (AID 748);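 note: fluorescence polarization from a fluorescein-labelled TR3 peptide binding purified Bcl-B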
# T3 sequence (Q9HD36 whole entry): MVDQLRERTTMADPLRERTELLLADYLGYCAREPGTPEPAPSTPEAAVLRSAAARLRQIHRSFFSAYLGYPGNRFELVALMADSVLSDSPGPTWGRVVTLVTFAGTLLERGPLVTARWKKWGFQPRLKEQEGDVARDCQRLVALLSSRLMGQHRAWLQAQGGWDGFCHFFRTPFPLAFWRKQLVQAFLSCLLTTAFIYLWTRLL
# [24] = biological target: Matrix metalloproteinase-14 (Homo sapiens, UniProt P50281); assay: Dose Response confirmation of uHTS hits for a small molecule inhibitors of MT1-MMP activation in a fluorescence assay set 1.; format: functional
# Large T antigen = Large T antigen (Simian virus 40, UniProt P03070); format: functional, Betapolyomavirus macacae;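 note: Confirmatory-stage PubChem screen for compounds that inhibit SV40 T antigen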
# Chain of Large T antigen (P03070 whole entry): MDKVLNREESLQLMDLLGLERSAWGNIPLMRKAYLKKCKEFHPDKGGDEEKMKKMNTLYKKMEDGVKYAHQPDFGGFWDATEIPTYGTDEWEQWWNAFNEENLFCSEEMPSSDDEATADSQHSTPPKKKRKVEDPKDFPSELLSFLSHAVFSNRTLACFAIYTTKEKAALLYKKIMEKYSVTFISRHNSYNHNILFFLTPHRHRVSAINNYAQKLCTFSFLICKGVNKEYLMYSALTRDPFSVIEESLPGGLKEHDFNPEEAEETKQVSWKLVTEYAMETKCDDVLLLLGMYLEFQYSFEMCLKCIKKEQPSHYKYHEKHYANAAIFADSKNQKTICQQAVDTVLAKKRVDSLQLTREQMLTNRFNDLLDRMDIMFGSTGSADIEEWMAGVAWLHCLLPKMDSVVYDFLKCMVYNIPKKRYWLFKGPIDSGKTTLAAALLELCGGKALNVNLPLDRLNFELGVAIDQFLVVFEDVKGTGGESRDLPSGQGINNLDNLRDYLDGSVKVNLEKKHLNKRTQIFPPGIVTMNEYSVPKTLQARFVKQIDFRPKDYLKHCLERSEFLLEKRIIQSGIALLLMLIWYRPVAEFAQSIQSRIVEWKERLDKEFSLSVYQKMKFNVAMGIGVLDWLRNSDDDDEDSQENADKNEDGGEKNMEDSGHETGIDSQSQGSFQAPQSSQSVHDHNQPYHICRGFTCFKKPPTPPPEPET
# Mu-type opioid receptor = Mu-type opioid receptor (Homo sapiens, UniProt P35372); format: functional, cell-based;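 note: U2OS cells with beta-arrestin recruitment to OPRM1 by beta-gal complementation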
# Chain of Mu-type opioid receptor (P35372 whole entry, the tested form may be a part): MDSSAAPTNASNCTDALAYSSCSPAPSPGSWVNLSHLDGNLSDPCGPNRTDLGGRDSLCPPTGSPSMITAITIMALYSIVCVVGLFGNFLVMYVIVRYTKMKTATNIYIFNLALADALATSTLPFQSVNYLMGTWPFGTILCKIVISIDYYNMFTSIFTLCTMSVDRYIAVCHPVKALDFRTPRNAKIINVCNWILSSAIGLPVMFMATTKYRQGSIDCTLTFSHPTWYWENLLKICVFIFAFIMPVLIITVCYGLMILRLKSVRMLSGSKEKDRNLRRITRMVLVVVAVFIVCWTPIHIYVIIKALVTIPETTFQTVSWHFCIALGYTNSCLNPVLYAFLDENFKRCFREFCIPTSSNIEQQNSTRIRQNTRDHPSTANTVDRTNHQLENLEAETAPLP
# [25] = biological target: T4, RNA-binding protein pos-1 (Caenorhabditis elegans, UniProt G5EF15); assay: disruptors of C. elegans POS-1 RNA interaction – biochemical, fluorescence polarization, dose response (AID 1964);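 note: purified POS-1 fused to maltose binding protein made in E. coli; potency of compounds blocking POS-1 binding to fluorescent RNA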
# T4 sequence (G5EF15 whole entry): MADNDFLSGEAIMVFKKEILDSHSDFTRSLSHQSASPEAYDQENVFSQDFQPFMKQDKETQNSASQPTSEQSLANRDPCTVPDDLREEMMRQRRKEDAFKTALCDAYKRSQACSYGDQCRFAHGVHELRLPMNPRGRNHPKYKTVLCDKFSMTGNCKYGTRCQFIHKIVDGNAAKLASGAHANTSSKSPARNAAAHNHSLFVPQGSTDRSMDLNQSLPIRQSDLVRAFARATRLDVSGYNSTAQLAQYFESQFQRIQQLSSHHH
# [26] = biological target: T5, Zinc finger protein mex-5 (Caenorhabditis elegans, UniProt Q9XUB2); assay: potency of MEX-5 RNA-binding blockers – biochemical, C. elegans, fluorescence polarization, dose response (AID 1960)
# T5 sequence (Q9XUB2 whole entry): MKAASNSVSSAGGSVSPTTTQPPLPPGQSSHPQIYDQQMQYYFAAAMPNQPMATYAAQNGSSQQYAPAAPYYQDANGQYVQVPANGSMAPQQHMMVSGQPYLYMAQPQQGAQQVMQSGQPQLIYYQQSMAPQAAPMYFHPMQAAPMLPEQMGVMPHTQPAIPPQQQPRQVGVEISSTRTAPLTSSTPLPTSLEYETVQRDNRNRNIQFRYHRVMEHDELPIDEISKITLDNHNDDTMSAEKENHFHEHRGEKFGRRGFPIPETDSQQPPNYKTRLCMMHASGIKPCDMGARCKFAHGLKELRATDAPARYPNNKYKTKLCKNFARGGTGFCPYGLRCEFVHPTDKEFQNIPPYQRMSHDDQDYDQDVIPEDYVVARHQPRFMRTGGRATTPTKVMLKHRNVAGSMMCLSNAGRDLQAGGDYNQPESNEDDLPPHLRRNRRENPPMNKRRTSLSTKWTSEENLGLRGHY
# [27] = biological target: 5-hydroxytryptamine receptor 2A (Mus musculus, UniProt P35363); format: functional, cell-based;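 note: CHO-K1 cells with tagged receptor and beta-arrestin; agonist potency measured as compound-induced activation of the receptor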
# [28] = biological target: Potassium channel subfamily K member 9 (Homo sapiens, UniProt Q9NPC2); assay: KCNK9 flux blockade, concentration-response – cell-based, FluxOR thallium flux, selectivity assay for TASK1 inhibitor project, SAR follow-up (AID 652211); format: functional;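 note: potency is for inhibitors of the channel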
# Chain of Potassium channel subfamily K member 9 (Q9NPC2 whole entry): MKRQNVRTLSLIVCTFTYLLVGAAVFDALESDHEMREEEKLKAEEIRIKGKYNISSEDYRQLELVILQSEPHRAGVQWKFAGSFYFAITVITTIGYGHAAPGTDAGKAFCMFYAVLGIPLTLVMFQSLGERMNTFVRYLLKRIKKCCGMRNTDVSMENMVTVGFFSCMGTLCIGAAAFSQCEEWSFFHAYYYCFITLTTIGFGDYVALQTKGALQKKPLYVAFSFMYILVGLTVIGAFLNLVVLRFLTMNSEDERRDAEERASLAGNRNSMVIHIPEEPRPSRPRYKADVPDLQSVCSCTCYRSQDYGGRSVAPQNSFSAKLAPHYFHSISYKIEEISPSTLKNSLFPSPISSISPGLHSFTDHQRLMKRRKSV
# [29] = biological target: Potassium channel subfamily K member 3 (Homo sapiens, UniProt O14649); assay: inhibition of human KCNK3 channel flux – CHO cells, FluxOR thallium flux, SAR follow-up (AID 652212); format: functional
# Chain of Potassium channel subfamily K member 3 (O14649 whole entry): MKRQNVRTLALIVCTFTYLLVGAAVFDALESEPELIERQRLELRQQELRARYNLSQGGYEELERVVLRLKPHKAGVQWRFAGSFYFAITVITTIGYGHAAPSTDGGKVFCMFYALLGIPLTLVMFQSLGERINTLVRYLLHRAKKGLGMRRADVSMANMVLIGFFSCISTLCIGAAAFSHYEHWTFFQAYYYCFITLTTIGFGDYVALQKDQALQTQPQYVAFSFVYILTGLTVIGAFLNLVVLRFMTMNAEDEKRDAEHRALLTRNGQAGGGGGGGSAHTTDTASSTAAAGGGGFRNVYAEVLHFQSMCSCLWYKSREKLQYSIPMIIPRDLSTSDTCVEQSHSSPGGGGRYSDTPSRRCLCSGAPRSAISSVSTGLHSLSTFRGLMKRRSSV
# [30] = biological target: T1, NAD-dependent protein deacylase sirtuin-5, mitochondrial; assay: blockers of sirtuin-5 peptide desuccinylation – biochemical, fluorescence imaging, cherry-pick, set 6, dose response (AID 720597)
# [31] = biological target: C-X-C chemokine receptor type 4 (Homo sapiens, UniProt P61073); assay: SAR analysis of small molecule antagonists of the CXCR6 receptor using a CXCR4 receptor luminescent beta-arrestin counterscreen.; format: functional
# Chain of C-X-C chemokine receptor type 4 (P61073 whole entry): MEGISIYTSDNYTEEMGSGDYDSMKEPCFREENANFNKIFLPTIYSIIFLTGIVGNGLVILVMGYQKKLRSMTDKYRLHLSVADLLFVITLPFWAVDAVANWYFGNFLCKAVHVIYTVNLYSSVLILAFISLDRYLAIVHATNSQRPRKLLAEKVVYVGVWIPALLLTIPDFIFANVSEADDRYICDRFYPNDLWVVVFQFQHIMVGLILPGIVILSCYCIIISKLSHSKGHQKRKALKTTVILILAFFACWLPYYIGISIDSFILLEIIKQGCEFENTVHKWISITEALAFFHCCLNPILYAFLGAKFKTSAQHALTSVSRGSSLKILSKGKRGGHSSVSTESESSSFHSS
# [32] = biological target: C-C chemokine receptor type 6 (Homo sapiens, UniProt P51684); assay: SAR analysis of small molecule antagonists of the CXCR6 receptor using a CCR6 receptor luminescent beta-arrestin counterscreen.; format: functional
# [33] = loss of viability in HepG2 cells – cell-based, CellTiter-Glo, cherry-picked, cytotoxicity control for Shn3 inhibitor project, dose response (AID 624134); format: functional
# [34] = Shn3 3'UTR reporter signal decrease – cell-based, Clone20 osteoblasts, firefly luciferase, cherry-pick, set 2, Schnurri-3 inhibitor project, dose response (AID 720490); format: functional;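 note: actives lower the luminescence signal as inhibitors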
# [35] = decrease of insulin promoter-GFP reporter – imaging, high-content screening, mouse beta cells (AID 1628); format: functional; conditions: MIN6
# INS1 = assay: INS-1E survival protection against cytokine death – cell-based, luminescence, retest, dose response (AID 449756); format: functional; conditions: Rattus norvegicus;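 note: cell death triggered by IL-1 beta plus TNF-alpha plus IFN-gamma mixture; protective hits raise ATP signal compared with cytokine alone wells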
# [36] = MIN6 cell viability loss – mouse insulinoma, cytotoxicity control, dose response (AID 2122); format: functional;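 note: confirmatory high-throughput counterscreen run to flag cytotoxic compounds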
# [37] = non-specific 3'UTR reporter inhibition in Clone20-Shn3RL – cell-based, Renilla luciferase, cherry-picked, counter-screen for Shn3 inhibitor project, dose response (AID 624133); format: functional
# [38] = reduction of Shn3 3'UTR-driven luciferase in osteoblasts – cell-based, Clone20 osteoblasts, firefly luciferase, cherry-picked, dose response (AID 624132); format: functional;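 note: firefly luciferase luminescence from reporter carrying the Shn3 3'UTR in osteoblasts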
smiles,measurement,setting,value
COc1ccc(-c2nnn(CC(=O)N(Cc3ccco3)C(C(=O)NCC3CCCO3)c3ccco3)n2)cc1 (configuration not stated),AC50,[1],> 30 µM (inactive)
COc1ccc(-c2ccc([C@@H]3[C@@H]4CN(Cc5cc(OC)cc(OC)c5)C[C@H]3N4)cc2)cc1,AC50,[2],6.38 µM (active)
same,AC50,[3],21.5 µM (active)
same,AC50,Paired box protein Pax-8,10.1 µM (active)
same,AC50,[4],10.5 µM (active)
same,AC50,[5],2.24 µM (active)
same,AC50,[6],23.8 µM (active)
same,AC50,[7],11.8 µM (active)
COc1ccccc1NC1=C(C(N)=O)C(=N)C(C(=O)Nc2cccc(Cl)c2Cl)S1 (configuration not stated),EC50,BJ [8],22.3 µM (active)
same,AC50,[9],6.08 µM (active)
same,EC50,[10],4.27 µM (active)
same,EC50,BJ [11],14.5 µM (active)
same,EC50,BJ [12],33.3 µM (inconclusive)
Cc1nc2ccc(NC(=O)N3CCCCC3)cc2nc1C,EC50,Kallikrein-7,5.48 µM (active)
CCOC(=O)C1(CCOc2ccccc2)CCN(C(=O)OC(C)(C)C)CC1,AC50,[13],> 30 µM (inactive)
same,AC50,[14],44.4 µM (active)
C=CCOc1ccccc1CN1CCC(Cc2ccccc2)CC1,AC50,Vero,35 µM (active)
O=C(NCc1nc2ccccc2[nH]1)C1=C[C@@H](c2ccc3c(c2)OCO3)C[C@@H](OCCCCO)O1,IC50,[15],> 83.3 µM (inactive)
CCc1nc(N2CCCCC2C)c2oc3ccccc3c2n1 (configuration not stated),AC50,HepG2,14.2 µM (active)
same,AC50,[16],36.2 µM (active)
same,AC50,HeLa,11.7 µM (active)
same,AC50,[17],49.6 µM (active)
COc1ccc(NC(S)=NNC(=O)c2nnn(-c3ccccc3)c2C)cc1,IC50,[18],> 122 µM (inactive)
same,IC50,[19],> 20 µM (inactive)
same,EC50,[20],14.2 µM (active)
O=C1C(NS(=O)(=O)c2ccccc2)=C(N2CCOCC2)C(=O)c2ccccc21,AC50,[21],> 70 µM (inactive)
same,AC50,[22],> 70 µM (inactive)
Cc1cc2ccccc2n1CCNC(=O)Cc1ccccc1,EC50,[23],2.9 µM (active)
C/C(=C/c1oc2ccc(O)cc2c1[N+](=O)[O-])N(C)C,IC50,Bcl-2-like protein 10,> 100 µM (inactive)
same,IC50,[24],13.3 µM (active)
same,IC50,Large T antigen,9.41 µM (active)
Cc1ccccc1-c1ccc(/C=C2/SC(N3CCOCC3)=NC2=O)o1,EC50,Mu-type opioid receptor,92.5 µM (inactive)
same,EC50,[25],26.1 µM (inconclusive)
same,EC50,[26],69.6 µM (active)
same,EC50,[27],6.39 µM (active)
COc1ccccc1NC(=O)c1cccc(NC(=O)CC2CCCC2)c1,IC50,[28],2.63 µM (active)
same,IC50,[29],86 nM (active)
Cc1ccc(S(=O)(=O)N(C)C[C@@H]2OCCCC[C@@H](C)Oc3ccc(NS(=O)(=O)c4ccc(Cl)cc4)cc3C(=O)N([C@@H](C)CO)C[C@H]2C)cc1,AC50,[30],> 30 µM (inactive)
COc1ccccc1NC(=O)CN1C2CCCC1CC(NC(=O)c1cc(OC)c(OC)c(OC)c1)C2 (configuration not stated),IC50,[31],> 79 µM (inactive)
same,IC50,[32],> 79 µM (inactive)
Oc1ccc(-c2[nH]nc(C(F)(F)F)c2-c2ccccc2)c(O)c1,AC50,[33],53.2 µM (active)
same,AC50,[34],473 nM (active)
same,IC50,[35],666 nM (active)
same,AC50,INS1,3.81 µM (active)
same,IC50,[36],547 nM (active)
same,AC50,[37],2.63 µM (active)
same,AC50,[38],283 nM (active)
